Results taken from US20240239775A1, “FXR REGULATOR, PREPARATION METHOD THEREFOR, PHARMACEUTICAL COMPOSITION THEREOF AND USE THEREOF” (QINGDAO RUIJI MEDICAL TECHNOLOGY CO., LTD., priority 2021, published 2024).

The molecules below were run against T1, FXR (Homo sapiens, UniProt Q96RI1) (assay: FXR antagonist screening by TR-FRET (LanthaScreen TR-FRET FXR co-activation assay kit)). Conditions: Table 1.1, FXR antagonistic activity; TR-FRET with CDCA; geometric means of at least two independent runs.
T1 construct: 5 μL of 20 nM FXR-LBD Complete Coregulator buffer G; purchased ThermoFisher PV4833
T1 sequence (Q96RI1 262-486 limits assumed): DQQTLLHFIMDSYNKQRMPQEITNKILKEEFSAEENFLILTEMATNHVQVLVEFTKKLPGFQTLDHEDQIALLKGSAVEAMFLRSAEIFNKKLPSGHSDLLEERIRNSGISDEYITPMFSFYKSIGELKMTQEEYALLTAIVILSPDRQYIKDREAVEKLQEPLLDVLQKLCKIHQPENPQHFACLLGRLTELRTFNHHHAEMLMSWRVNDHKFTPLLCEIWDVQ
Assay type: biochemical
How it was run: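 FXR-LBD (20 nM working solution) mixed with compound, CDCA (200 μM working solution) as agonist, Fluorescein-SRC2-2 and Tb-anti-GST antibody in Coregulator buffer G; 10 h at room temperature. Coactivator recruitment read by TR-FRET, triplicate wells.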

Question: Which IC50 does the source give for `CCOC(=O)c1oc2ccc(S(=O)(=O)N(CCc3ccccc3)Cc3ccc(Cl)cc3Cl)cc2c1C` [Example M4-60, ethyl 3-methyl-5-(N-(2,4-dichlorobenzyl)-N-phenethylsulfamoyl)benzofuran-2-carboxylate] here?
Answer: Its IC50 is 50 to 100 µM.

Question: For `CCOC(=O)c1oc2ccc(S(=O)(=O)N(CCc3ccccc3)Cc3ccccc3C)cc2c1C` [Example M4-17, ethyl 3-methyl-5-(N-(2-methylbenzyl)-N-phenethylsulfamoyl)benzofuran-2-carboxylate], which IC50 is on record?
Answer: Its IC50 is 50 to 100 µM.

Question: `CCOC(=O)c1oc2ccc(S(=O)(=O)N(CCc3ccccc3)c3cccc(N4CCN(C)CC4)c3)cc2c1C` [Example M8-78, ethyl 3-methyl-5-(N-(3-(4-methylpiperazin-1-yl)phenyl)-N-phenethylsulfamoyl)benzofuran-2-carboxylate] was tested. Which IC50 did it give?
Answer: Its IC50 is 50 to 100 µM.

Question: Which IC50 does the source give for `CCOC(=O)c1oc2ccc(S(=O)(=O)N(CCc3ccccc3)Cc3ccc(-c4ccccc4C(=O)OC(C)(C)C)cc3)cc2c1C` [Example M4-84, ethyl 3-methyl-5-(N-((2′-(tert-butoxycarbonyl)-[1,1′-biphenyl]-4-yl)methyl)-N-phenethylsulfamoyl)benzofuran-2-carboxylate] here?
Answer: The IC50 was 50 to 100 µM.

Question: How did the IC50 turn out when `Cc1c(C(=O)O)oc2ccc(S(=O)(=O)N(CCc3ccccc3)Cc3ccccc3N3CCN(C(=O)OC(C)(C)C)CC3)cc12` [Example F27-S87, 3-methyl-5-(N-(2-(4-(tert-butoxycarbonyl)piperazin-1-yl)benzyl)-N-phenethylsulfamoyl)benzofuran-2-carboxylic acid] was run?
Answer: The IC50 was 0.1 to 10 µM.

Question: How did the IC50 turn out when `CCOC(=O)c1oc2ccc(S(=O)(=O)N(CCc3ccccc3)Cc3ccccc3N3CCN(C(C)=O)CC3)cc2c1C` [Example M10-100, ethyl 3-methyl-5-(N-(2-(4-acetylpiperazin-1-yl)benzyl)-N-phenethylsulfamoyl)benzofuran-2-carboxylate] was run?
Answer: Its IC50 is 50 to 100 µM.

Same assay, conditions: Table 1.2, FXR antagonistic activity; TR-FRET with CDCA; geometric means of at least two independent runs

Question: How did the IC50 turn out when `CCOC(=O)c1oc2ccc(S(=O)(=O)N(CCc3ccccc3)c3ccccc3N3CCN(C(=O)c4ccccc4C)CC3)cc2c1C` [Example M10-107, Ethyl 3-methyl-5-(N-(2-(4-(2-methylbenzoyl)piperazin-1-yl)phenyl)-N-phenethylsulfamoyl)benzofuran-2-carboxylate] was run?
Answer: The IC50 was 50 to 100 µM.

Question: `Cc1c(C(=O)O)oc2ccc(S(=O)(=O)N(CCc3ccccc3)c3ccccc3N3CCN(C(=O)c4sccc4Br)C[C@@H]3C)cc12` [Example F27-S152, (S)-5-(N-(2-(4-(3-bromothiophene-2-carbonyl)-2-methylpiperazin-1-yl)phenyl)-N-phenethylsulfamoyl)-3-methylbenzofuran-2-carboxylic acid] was tested. Which IC50 did it give?
Answer: Its IC50 is 0.1 to 10 µM.

Question: With `CCOC(=O)c1oc2ccc(S(=O)(=O)N(CCc3ccccc3)c3ccccc3N3CCN(C(=O)c4sccc4Br)C[C@@H]3C)cc2c1C` [Example M10-152, (S)-ethyl-5-(N-(2-(4-(3-bromothiophene-2-carbonyl)-2-methylpiperazin-1-yl)phenyl)-N-phenethylsulfamoyl)-3-methylbenzofuran-2-carboxylate] as the molecule, how does the IC50 read?
Answer: The IC50 was 50 to 100 µM.

Question: How did the IC50 turn out when `CCOC(=O)c1sc2ccc(S(=O)(=O)N(CCc3ccccc3OC)c3ccccc3N3CCN(C(=O)c4sccc4Br)CC3)cc2c1C` [Example M10-173, Ethyl 5-(N-(2-(4-(3-bromothiophene-2-carbonyl)piperazin-1-yl)phenyl)-N-(2-methoxyphenethyl)sulfamoyl)-3-methylbenzothiophene-2-carboxylate] was run?
Answer: The IC50 was 50 to 100 µM.

Question: `Cc1c(C(=O)O)sc2ccc(S(=O)(=O)N(CCc3ccc(C(F)(F)F)cc3)c3ccccc3N3CCN(C(=O)c4sccc4Br)CC3)cc12` [Example F27-S170, 5-(N-(2-(4-(3-bromothiophene-2-carbonyl)piperazin-1-yl)phenyl)-N-(4-(trifluoromethyl)phenethyl)sulfamoyl)-3-methylbenzothiophene-2-carboxylic acid] was tested. Which IC50 did it give?
Answer: The IC50 was 0.1 to 10 µM.

Question: How did the IC50 turn out when `Cc1c(C(=O)O)oc2ccc(S(=O)(=O)N(CCc3ccccc3)c3ccccc3N3CCN(C(=O)c4cc[nH]n4)CC3)cc12` [Example F27-S130, 5-(N-(2-(4-(1H-pyrazole-3-carbonyl)piperazin-1-yl)phenyl)-N-phenethylsulfamoyl)-3-methylbenzo furan-2-carboxylic acid] was run?
Answer: The IC50 was 0.1 to 10 µM.

Question: How did the IC50 turn out when `CCOC(=O)c1sc2ccc(S(=O)(=O)N(CCc3ccccc3Cl)c3ccccc3N3CCN(C(=O)c4sccc4Br)CC3)cc2c1C` [Example M10-172, Ethyl 5-(N-(2-(4-(3-bromothiophene-2-carbonyl)piperazin-1-yl)phenyl)-N-(2-chlorophenylethyl)sulfamoyl)-3-methylbenzothiophene-2-carboxylate] was run?
Answer: Its IC50 is 50 to 100 µM.

Question: How did the IC50 turn out when `Cc1c(C(=O)O)oc2ccc(S(=O)(=O)N(CCc3ccccc3)c3ccccc3N3CCN(C(=O)c4ccccn4)CC3)cc12` [Example F27-S117, 3-methyl-5-(N-phenethyl-N-(2-(4-pyridinecarbonylpiperazin-1-yl)phenyl)sulfamoyl)benzofuran-2-carboxylic acid] was run?
Answer: The IC50 was 0.1 to 10 µM.

Question: Which IC50 does the source give for `CCOC(=O)c1oc2ccc(S(=O)(=O)N(CCc3ccccc3)c3ccccc3N3CCN(C(=O)c4c(OC)cccc4OC)CC3)cc2c1C` [Example M10-133, Ethyl 5-(N-(2-(4-(2,6-Dimethoxybenzoyl)piperazin-1-yl)phenyl)-N-phenethylsulfamoyl)3-methylbenzofuran-2-carboxylate] here?
Answer: The IC50 was 50 to 100 µM.

Question: For `CCOC(=O)c1sc2ccc(S(=O)(=O)N(CCc3ccc(OC)cc3)c3ccccc3N3CCN(C(=O)c4sccc4Br)CC3)cc2c1C` [Example M10-177, Ethyl 5-(N-(2-(4-(3-bromothiophene-2-formyl)piperazin-1-yl)phenyl)-N-(4-methoxyphenethyl)sulfamoyl)3-methylbenzothiophene-2-carboxylate], which IC50 is on record?
Answer: Its IC50 is 50 to 100 µM.

Question: With `COc1ccc(CCN(c2ccccc2N2CCN(C(=O)c3sccc3Br)CC2)S(=O)(=O)c2ccc3sc(C(=O)O)c(C)c3c2)cc1` [Example F27-S165, 5-(N-(2-(4-(3-bromothiophene-2-formyl)piperazin-1-yl)phenyl)-N-(4-methoxyphenethyl)sulfamoyl)3-methylbenzothiophene-2-carboxylic acid] as the molecule, how does the IC50 read?
Answer: The IC50 was 0.1 to 10 µM.

Question: How did the IC50 turn out when `Cc1c(C(=O)O)sc2ccc(S(=O)(=O)N(CCc3ccc(C(=O)O)cc3)c3ccccc3N3CCN(C(=O)c4sccc4Br)CC3)cc12` [Example F27-S168, 5-(N-(2-(4-(3-bromothiophene-2-carbonyl)piperazin-1-yl)phenyl)-N-(4-carboxyphenethyl)sulfamoyl)-3-toluenothiophene-2-carboxylic acid] was run?
Answer: Its IC50 is 0.1 to 10 µM.

Question: Which IC50 does the source give for `Cc1ccc(C(=O)N2CCN(c3ccccc3N(CCc3ccccc3)S(=O)(=O)c3ccc4oc(C(=O)O)c(C)c4c3)CC2)s1` [Example F27-S139, 5-(N-(2-(4-(5-methylthiophene-2-formyl)piperazin-1-yl)phenyl)-N-phenethylsulfamoyl)3-methylbenzofuran-2-carboxylic acid] here?
Answer: The IC50 was 0.1 to 10 µM.

Question: `CCOC(=O)c1sc2ccc(S(=O)(=O)N(Cc3ccccc3)c3ccccc3N3CCN(C(=O)c4sccc4Br)CC3)cc2c1C` [Example M10-181, Ethyl 5-(N-benzyl-N-(2-(4-(3-bromothiophene-2-carbonyl)piperazin-1-yl)phenyl)sulfamoyl)-3-methylbenzothiophene-2-carboxylate] was tested. Which IC50 did it give?
Answer: The IC50 was 50 to 100 µM.

Question: For `Cc1c(C(=O)O)oc2ccc(S(=O)(=O)N(CCc3ccccc3)c3ccccc3N3CC4CC3CN4C(=O)c3sccc3Br)cc12` (stereo not drawn) [Example F27-S157, 5-(N-(2-(5-(3-bromothiophene-2-formyl)-2,5-diazabicyclo[2.2.1]hept-2-yl)phenyl)-N-phenethylsulfamoyl)3-methylbenzofuran-2-carboxylic acid], which IC50 is on record?
Answer: The IC50 was 0.1 to 10 µM.
